US9518018B2, “3-alkoxy, thioalkyl and amino-4-amino-6-(substituted)picolinates and their use as herbicides” (Dow AgroSciences LLC, priority 2011, dated 2016)
Like-named read-outs stand apart in the source and are kept apart here.

Experiments:
[1] = tested on: ORYSA: rice (Oryza sativa); assay: Post-Emergent Test I herbicidal activity; format: in vivo; details: post-emergence, 336 h, read-out: Visual Growth Reduction (%)-14 Days after Application ORYSA; for pest or weed control at 140 g/ha: Table 3, 140 g ai/ha
Summary of the method: (§1)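 Plants grown in greenhouse to first/second true leaf. Compound formulated in acetone:DMSO 97:3 then diluted into crop-oil/surfactant aqueous mix; serial twofold rates. Sprayed at 187 L/ha, 43 cm above canopy; solvent-blank controls. Scored visually at 14 d; probit fit for GR values.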

[2] = tested on: CHEAL: lambsquarters (Chenopodium album); assay: Post-Emergent Test I herbicidal activity; format: in vivo; details: for pest or weed control at 8.75 g/ha: Table 4, 8.75 g ai/ha; for pest or weed control at 17.5 g/ha: Table 4, 17.5 g ai/ha; for pest or weed control at 35 g/ha: Table 4, 35 g ai/ha; for pest or weed control at 70 g/ha: Table 4, 70 g ai/ha; for GR20 CHEAL: Table 4, growth reduction of 20% of plant growth; for GR20 CHEAL / GR50 CHEAL / GR80 CHEAL: 14 days after application, probit analysis; for GR50 CHEAL: Table 4, growth reduction of 50% of plant growth; for GR80 CHEAL: Table 4, growth reduction of 80% of plant growth
Summary of the method: as §1

[3] = tested on: ABUTH: velvetleaf (Abutilon theophrasti); assay: Post-Emergent Test I herbicidal activity; format: in vivo; details: for pest or weed control at 140 g/ha / pest or weed control at 8.75 g/ha / pest or weed control at 17.5 g/ha / pest or weed control at 35 g/ha / pest or weed control at 70 g/ha / pest or weed control at 280 g/ha: Abutilon theophrasti, post-emergence, 336 h, read-out: Visual Growth Reduction (%)-14 Days after Application ABUTH; for pest or weed control at 8.75 g/ha: Table 4, 8.75 g ai/ha; for pest or weed control at 17.5 g/ha: Table 4, 17.5 g ai/ha; for pest or weed control at 35 g/ha: Table 4, 35 g ai/ha; for pest or weed control at 70 g/ha: Table 4, 70 g ai/ha; for GR20 ABUTH: Table 4, growth reduction of 20% of plant growth; for GR20 ABUTH / GR50 ABUTH / GR80 ABUTH: 14 days after application, probit analysis; for GR50 ABUTH: Table 4, growth reduction of 50% of plant growth; for GR80 ABUTH: Table 4, growth reduction of 80% of plant growth
Summary of the method: as §1

[4] = tested on: ECHCG: barnyardgrass (Echinochloa crus-galli); assay: Post-Emergent Test I herbicidal activity; format: in vivo; details: post-emergence, 336 h, read-out: Visual Growth Reduction (%)-14 Days after Application ECHCG; for pest or weed control at 140 g/ha: Table 3, 140 g ai/ha
Summary of the method: as §1

[5] = tested on: ZEAMX: corn (Zea mays); assay: Post-Emergent Test I herbicidal activity; format: in vivo; details: for GR20 ZEAMX: Table 4, growth reduction of 20% of plant growth; for GR20 ZEAMX / GR50 ZEAMX / GR80 ZEAMX: 14 days after application, probit analysis; for GR50 ZEAMX: Table 4, growth reduction of 50% of plant growth; for GR80 ZEAMX: Table 4, growth reduction of 80% of plant growth; for pest or weed control at 140 g/ha / pest or weed control at 8.75 g/ha / pest or weed control at 17.5 g/ha / pest or weed control at 35 g/ha / pest or weed control at 70 g/ha / pest or weed control at 280 g/ha: Zea mays, post-emergence, 336 h, read-out: Visual Growth Reduction (%)-14 Days after Application ZEAMX; for pest or weed control at 8.75 g/ha: Table 4, 8.75 g ai/ha; for pest or weed control at 17.5 g/ha: Table 4, 17.5 g ai/ha; for pest or weed control at 35 g/ha: Table 4, 35 g ai/ha; for pest or weed control at 70 g/ha: Table 4, 70 g ai/ha
Summary of the method: as §1

[6] = tested on: CYPES: yellow nutsedge (Cyperus esculentus); assay: Post-Emergent Test I herbicidal activity; format: in vivo; details: post-emergence, 336 h, read-out: Visual Growth Reduction (%)-14 Days after Application CYPES; for pest or weed control at 140 g/ha: Table 3, 140 g ai/ha
Summary of the method: as §1

[7] = tested on: EPHHL: wild poinsettia (Euphorbia heterophylla); assay: Post-Emergent Test I herbicidal activity; format: in vivo; details: post-emergence, 336 h, read-out: Visual Growth Reduction (%)-14 Days after Application EPHHL; for pest or weed control at 140 g/ha: Table 3, 140 g ai/ha
Summary of the method: as §1

[8] = Chenopodium album, post-emergence, 336 h, Table 3, 140 g ai/ha, read-out: Visual Growth Reduction (%)-14 Days after Application CHEAL
[9] = Chenopodium album, post-emergence, 336 h, read-out: Visual Growth Reduction (%)-14 Days after Application CHEAL

Compound | melting point | pest or weed control at 140 g/ha [1] | pest or weed control at 140 g/ha [2, 8] | pest or weed control at 17.5 g/ha [2, 9] | pest or weed control at 35 g/ha [2, 9] | pest or weed control at 70 g/ha [2, 9] | GR20 CHEAL [2] | GR50 CHEAL [2] | GR80 CHEAL [2] | pest or weed control at 140 g/ha ([3]; Table 3, 140 g ai/ha) | pest or weed control at 17.5 g/ha [3] | pest or weed control at 35 g/ha [3] | pest or weed control at 70 g/ha [3] | pest or weed control at 140 g/ha ([3]; Table 4, 140 g ai/ha) | GR20 ABUTH [3] | GR50 ABUTH [3] | GR80 ABUTH [3] | pest or weed control at 140 g/ha [4] | GR20 ZEAMX [5] | GR50 ZEAMX [5] | also measured
COc1c(C(=O)O)nc(-c2ccc(Cl)c(OC)c2F)c(F)c1N [Compound 45, 4-amino-6-(4-chloro-2-fluoro-3-methoxyphenyl)-5-fluoro-3-methoxypicolinic acid] | 143 to 146 °C | 0% | 100% | 100% | 100% | 100% | <8.75 g ai/ha | <8.75 g ai/ha | <8.75 g ai/ha | 100% | 100% | 100% | 100% | 100% | <8.75 g ai/ha | <8.75 g ai/ha | <8.75 g ai/ha | 100% | <8.75 g ai/ha | 12.4 g ai/ha | pest or weed control at 8.75 g/ha [2, 9]: 90%; Visual Growth Reduction (%)-14 Days after Application CHEAL ([2]; Table 4, 140 g ai/ha): 100%; pest or weed control at 8.75 g/ha [3]: 90%; GR80 ZEAMX [5]: >140 g ai/ha; pest or weed control at 140 g/ha ([5]; Table 3, 140 g ai/ha): 65%; pest or weed control at 8.75 g/ha [5]: 50%; pest or weed control at 17.5 g/ha [5]: 50%; pest or weed control at 35 g/ha [5]: 55%; pest or weed control at 70 g/ha [5]: 60%; pest or weed control at 140 g/ha ([5]; Table 4, 140 g ai/ha): 65%; pest or weed control at 140 g/ha [6]: 100%; pest or weed control at 140 g/ha [7]: 100%
COc1c(C(=O)O)nc(-c2ccc(Cl)cc2)c(F)c1N [Compound 47] | – | 45% | 100% | 100% | 100% | 100% | <8.75 g ai/ha | <8.75 g ai/ha | <8.75 g ai/ha | 100% | 95% | 95% | 100% | 100% | <8.75 g ai/ha | <8.75 g ai/ha | <8.75 g ai/ha | 100% | <8.75 g ai/ha | 12.6 g ai/ha | pest or weed control at 8.75 g/ha [2, 9]: 90%; Visual Growth Reduction (%)-14 Days after Application CHEAL ([2]; Table 4, 140 g ai/ha): 100%; pest or weed control at 8.75 g/ha [3]: 90%; GR80 ZEAMX [5]: 74.1 g ai/ha; pest or weed control at 140 g/ha ([5]; Table 3, 140 g ai/ha): 85%; pest or weed control at 8.75 g/ha [5]: 40%; pest or weed control at 17.5 g/ha [5]: 55%; pest or weed control at 35 g/ha [5]: 75%; pest or weed control at 70 g/ha [5]: 80%; pest or weed control at 140 g/ha ([5]; Table 4, 140 g ai/ha): 85%; pest or weed control at 140 g/ha [6]: 100%; pest or weed control at 140 g/ha [7]: 100%
COC(=O)c1nc(Cl)cc(N)c1OC [Compound 1, methyl 4-amino-6-chloro-3-methoxypicolinate] | 78 to 79 °C | – | – | 90% | 90% | 95% | <17.5 g ai/ha | <17.5 g ai/ha | <17.5 g ai/ha | – | 40% | 85% | 95% | 95% | 10.5 g ai/ha | 19.4 g ai/ha | 35.9 g ai/ha | – | >280 g ai/ha | >280 g ai/ha | pest or weed control at 280 g/ha ([1]; Table 3, 280 g ai/ha): 0%; pest or weed control at 280 g/ha ([2]; Chenopodium album, post-emergence, 336 h, Table 3, 280 g ai/ha, read-out: Visual Growth Reduction (%)-14 Days after Application CHEAL): 100%; pest or weed control at 140 g/ha ([2]; Chenopodium album, post-emergence, 336 h, Table 4, 140 g ai/ha, read-out: Visual Growth Reduction (%)-14 Days after Application CHEAL): 100%; Visual Growth Reduction (%)-14 Days after Application CHEAL ([2]; Table 4, 280 g ai/ha): 100%; pest or weed control at 280 g/ha ([3]; Table 3, 280 g ai/ha): 100%; pest or weed control at 280 g/ha ([3]; Table 4, 280 g ai/ha): 100%; pest or weed control at 280 g/ha ([4]; Table 3, 280 g ai/ha): 0%; GR80 ZEAMX [5]: >280 g ai/ha; pest or weed control at 280 g/ha ([5]; Table 3, 280 g ai/ha): 0%; pest or weed control at 17.5 g/ha [5]: 0%; pest or weed control at 35 g/ha [5]: 0%; pest or weed control at 70 g/ha [5]: 0%; pest or weed control at 140 g/ha ([5]; Table 4, 140 g ai/ha): 0%; pest or weed control at 280 g/ha ([5]; Table 4, 280 g ai/ha): 0%; pest or weed control at 280 g/ha ([6]; Table 3, 280 g ai/ha): 0%; pest or weed control at 280 g/ha ([7]; Table 3, 280 g ai/ha): 100%
COC(=O)c1nc(-c2ccc(Cl)c(OC)c2F)c(F)c(N)c1OC [Compound 34] | 133.5 to 135.5 °C | 10% | 100% | – | – | – | – | – | – | 100% | – | – | – | – | – | – | – | 100% | – | – | pest or weed control at 140 g/ha ([5]; Table 3, 140 g ai/ha): 90%; pest or weed control at 140 g/ha [6]: 100%; pest or weed control at 140 g/ha [7]: 100%
